In the supplement of paper PMC9334596:

System: mPer2Luc MEF
Assay: PER2::LUC luminescence relative to vehicle control (fold of vehicle); higher = higher PER2::LUC reporter signal
Protocol: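 Secondary dose-response validation of 72 circadian-modulating compounds in mPer2Luc MEFs, threefold dilution series of six doses from 10 uM down to 0.04 uM. PER2::LUC luminescence read at 24 h and 30 h after treatment, normalised to vehicle (DMSO) control.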

[1] = time after treatment: 24-hour, concentration: 0.04μM
[2] = time after treatment: 24-hour, concentration: 0.37μM
[3] = time after treatment: 24-hour, concentration: 3.33μM
[4] = time after treatment: 24-hour, concentration: 10μM
[5] = time after treatment: 30-hour, concentration: 0.04μM
[6] = time after treatment: 30-hour, concentration: 0.37μM
[7] = time after treatment: 30-hour, concentration: 3.33μM
[8] = time after treatment: 30-hour, concentration: 10μM

SMILES | PER2::LUC luminescence [1] | PER2::LUC luminescence [2] | PER2::LUC luminescence [3] | PER2::LUC luminescence [4] | PER2::LUC luminescence [5] | PER2::LUC luminescence [6] | PER2::LUC luminescence [7] | PER2::LUC luminescence [8]
CCOC(=O)N1c2ccc(C(F)(F)F)cc2[C@@H](N(Cc2cc(C(F)(F)F)cc(C(F)(F)F)c2)C(=O)OC)C[C@H]1CC | 0.989 | 0.984 | 0.939 | 0.99 | 0.935 | 0.917 | 0.959 | 0.943
CCc1cc2c(cc1N1CCC(N3CCOCC3)CC1)C(C)(C)c1[nH]c3cc(C#N)ccc3c1C2=O | 0.92 | 0.909 | 0.957 | 0.902 | 0.817 | 0.859 | 0.859 | 0.83
CCc1cncnc1N1CCN(Cc2nc3ccc(C(F)(F)F)cc3[nH]2)CC1 | 1.03 | 1 | 1.01 | 1.06 | 1 | 1.03 | 1.01 | 1.03
CN1CCN(C2CCC(n3cc(-c4ccc(Oc5ccccc5)cc4)c4c(N)ncnc43)CC2)CC1 (stereo not drawn) | 0.613 | 0.502 | 0.203 | 0.006 | 0.566 | 0.477 | 0.212 | 0.003
CN1CCN(c2nc3ccccc3nc2Cl)CC1 | 1 | 1.02 | 1.02 | 0.958 | 1.04 | 1.05 | 1.04 | 0.971
COc1cc(NC(=O)c2ccc(-c3ccc(Cl)cc3)o2)cc(OC)c1 | 0.886 | 0.894 | 0.888 | 0.875 | 0.83 | 0.878 | 0.95 | 0.864
COc1ccc(-c2nc3cc(F)ccc3s2)cc1OC | 1.36 | 1.39 | 1.36 | 1.36 | 1.66 | 1.69 | 1.67 | 1.58
COc1ccccc1-c1cc(Nc2cccc(CS(N)(=O)=O)c2)ncn1 | 0.961 | 0.968 | 0.971 | 0.804 | 0.841 | 0.933 | 0.964 | 0.982
Cc1ccc(NC(=O)c2cccc(N(C)C)c2)cc1NC(=O)c1ccc(O)cc1 | 0.95 | 0.979 | 1.07 | 1.36 | 0.924 | 0.932 | 1.01 | 1.65
Cc1ccc2nc(NCCN)c3ncc(C)n3c2c1 | 0.893 | 0.859 | 0.768 | 0.028 | 0.841 | 0.784 | 0.594 | 0.03
Nc1nc(N)c2nc(-c3cccc(O)c3)cnc2n1 | 0.893 | 0.833 | 0.854 | 0.608 | 0.829 | 0.88 | 0.803 | 0.578
Nc1nccc(Oc2ccc(NC(=O)c3c[nH]cc(-c4ccc(F)cc4)c3=O)cc2F)c1Cl | 1 | 1.02 | 1.03 | 1.12 | 1.06 | 1.03 | 0.929 | 1
Nc1ncnc2c1C(=O)N(c1ccc([C@H]3CC[C@H](CC(=O)O)CC3)cc1)CCO2 | 1.04 | 0.984 | 1 | 1 | 1.03 | 0.966 | 1.06 | 1.01
O=C(Nc1cccc(Cl)c1)c1ccccn1 | 1.06 | 1.28 | 1.51 | 1.81 | 1.06 | 1.29 | 1.57 | 1.92
O=c1cc(N2CCOCC2)oc2c(-c3cccc4c3sc3ccccc34)cccc12 | 0.952 | 0.951 | 1.05 | 1.07 | 0.952 | 0.931 | 1.08 | 1.09
OCc1ccc(-c2ccc(-c3ccc(CO)s3)o2)s1 | 1.37 | 1.41 | 1.49 | 1.24 | 1.62 | 1.63 | 1.68 | 1.41
Cc1cccc(/C=N/Nc2cc(N3CCOCC3)n3nc(-c4ccncc4)cc3n2)c1 [APY0201] | 0.206 | 0.187 | 0.151 | 0.04 | 0.16 | 0.145 | 0.117 | 0.038
CCN1CCN(Cc2ccc(NC(=O)Nc3ccc(Oc4cc(NC)ncn4)cc3)cc2C(F)(F)F)CC1 [AST 487] | 0.843 | 0.869 | 0.792 | 0.031 | 0.918 | 0.891 | 0.951 | 0.023
CCCCN(CCCC)C(=O)CN1C[C@H](c2ccc3c(c2)OCO3)[C@@H](C(=O)O)[C@@H]1c1ccc(OC)cc1 [ATRASENTAN] | 1.16 | 1.17 | 1.5 | 2.41 | 1.19 | 1.16 | 1.47 | 2.31
CN1CCN(S(=O)(=O)c2ccc(-c3cnc(N)c(C(=O)Nc4cccnc4)n3)cc2)CC1 [AZD2858] | 1.18 | 1.37 | 1.01 | 0.842 | 0.938 | 1.16 | 0.874 | 0.676
COc1cc(CCc2cc(NC(=O)c3ccc(N4CC(C)NC(C)C4)cc3)n[nH]2)cc(OC)c1 (stereo not drawn) [AZD4547] | 0.792 | 0.795 | 0.679 | 0.329 | 0.796 | 0.73 | 0.643 | 0.278
